Results taken from patent US20220400686A1, “COMPOSITIONS AND METHODS FOR ON-DEMAND RELEASE OF ANTIMICROBIAL AGENTS” (priority 2019, published 2022).

Experiments:
[1] = system: S. aureus; test: Specific and nonspecific cleavage in human serum with/without MN, read out by S. aureus culture in the supernatant; type: cell-based; conditions: PEGDMA-Oligo-Gentamicin hydrogel incubated 2 h in human serum with/without MN
Method: The data also support faster oligo cleavage by MN than by other nucleases present in the human serum.
Briefly, the PEGDMA-Oligo-Gentamicin hydrogel (50 μL, 8 mm in diameter, n=3) was immersed in 0.25 mL of human serum with or without MN (0.1 U/mL) and incubated at 37° C. for 2 h. The hydrogel was then removed while 0.25 mL of LB media containing 250 CFU S. aureus was added. The culture of S. aureus was incubated for 24 h at 37° C. with shaking.

[2] = target: T1, micrococcal nuclease (MN) (Staphylococcus aureus, UniProt P00644); test: Enzymatic oligo digestion by micrococcal nuclease monitored by GPC; type: biochemical, S. aureus
T1 construct: purchased Worthington Biochemical Corporation; host or cells: S. aureus strain ATCC #27735
Text: The cleavage of the oligo probe (synthesized and purified by Integrated DNA Technologies) by MN (source: S. aureus strain ATCC #27735; Worthington Biochemical Corporation) was first validated prior to its conjugation with vancomycin or PEGDMA hydrogel.
The digestion of the methacrylated oligo by micrococcal nuclease (MN, 0.1-1.0 U/μL) was monitored by aqueous gel permeation chromatography (GPC) on a Varian ProStar HPLC system with two PL Aquagel-OH columns (Agilent Technologies) and a UV detector. The eluent was aqueous PBS (10 mM, pH 7.4) and the flow rate was 1.0 mL/min. Detection of the oligo probe and its fragments upon digestion was enabled by UV absorbance at 260 nm. Extinction coefficient of 2′-O-methyl-modified nucleotides was assumed to be the same as that of RNA. All measurements were performed in triplicates.

Substance | total CFU count of S. aureus after 24-h culture in supernatant [1] | cleavage of the oligo by MN (fragments by GPC, UV 260 nm) ([2]; MN 0.1 U/μL, PBS pH 7.4 10 mM, physiological concentration of calcium ions) | cleavage of the oligo by MN ([2]; absence of calcium ions)
/5Carboxyl/*mC*mG*TT*mC*mG*/3Acryd/ [6 PS] | increased accordingly |  | 
/5Carboxyl/*mC*mGTTmC*mG*/3Acryd/ [4 PS] | increased accordingly |  | 
/5Carboxyl/mCmGTTmCmG/3Acryd/ [0 PS oligo] | least or no CFU count | two fragments | very little cleavage
